The molecules below were run against T1, NEDD8 activating enzyme (Homo sapiens, UniProt Q8TBC4) (assay: Inhibition of recombinant human NAEalpha/N-terminal His-tagged NAEbeta expressed in baculovirus infected insect Sf9 cells using N-terminal FLAG tagged Nedd8 as substrate incubated for 105 mins in presence of N-terminal GST-tagged Ubc12 by FRET assay).
T1 sequence (Q8TBC4 whole entry): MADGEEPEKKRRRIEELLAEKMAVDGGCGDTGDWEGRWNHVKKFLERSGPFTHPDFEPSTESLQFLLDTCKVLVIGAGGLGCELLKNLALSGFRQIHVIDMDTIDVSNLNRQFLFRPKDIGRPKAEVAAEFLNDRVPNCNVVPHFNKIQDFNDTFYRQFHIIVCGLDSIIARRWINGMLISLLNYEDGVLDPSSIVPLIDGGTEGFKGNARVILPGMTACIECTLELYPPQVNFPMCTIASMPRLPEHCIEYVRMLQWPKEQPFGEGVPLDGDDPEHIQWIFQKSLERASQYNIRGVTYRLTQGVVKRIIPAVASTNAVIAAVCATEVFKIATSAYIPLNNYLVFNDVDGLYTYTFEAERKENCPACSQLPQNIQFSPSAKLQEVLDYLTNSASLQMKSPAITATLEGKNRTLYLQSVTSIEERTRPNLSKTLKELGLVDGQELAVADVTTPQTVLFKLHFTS
T1 sequence (Q13564 whole entry): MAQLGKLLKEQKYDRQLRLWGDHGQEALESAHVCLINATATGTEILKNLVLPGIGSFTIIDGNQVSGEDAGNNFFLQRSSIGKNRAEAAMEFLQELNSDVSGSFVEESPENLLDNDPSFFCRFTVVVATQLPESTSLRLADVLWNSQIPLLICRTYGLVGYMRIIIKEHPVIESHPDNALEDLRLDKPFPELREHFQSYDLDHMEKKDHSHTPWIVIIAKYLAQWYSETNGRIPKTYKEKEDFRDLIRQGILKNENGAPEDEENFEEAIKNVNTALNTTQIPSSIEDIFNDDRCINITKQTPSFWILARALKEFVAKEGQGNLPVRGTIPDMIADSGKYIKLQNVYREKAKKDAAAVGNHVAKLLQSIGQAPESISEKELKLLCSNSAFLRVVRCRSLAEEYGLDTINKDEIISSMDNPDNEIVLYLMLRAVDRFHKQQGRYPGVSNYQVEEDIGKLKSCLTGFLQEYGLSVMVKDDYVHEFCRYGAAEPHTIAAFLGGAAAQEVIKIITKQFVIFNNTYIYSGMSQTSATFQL
`NS(=O)(=O)OC[C@H]1CC[C@H](Oc2ncnc3[nH]c(-c4cccc5ccccc45)nc23)C1` gave an IC50 of 500 to 10000 nM.
Work on `NS(=O)(=O)OC[C@@H]1C[C@@H](Nc2ncnc(N[C@H]3CCc4ccccc43)n2)C[C@@H]1O` yielded an IC50 of at most 500 nM.
`CO[C@@H]1CC(C)(C)c2ccccc2[C@@H]1Nc1cc(O[C@@H]2C[C@@H](COS(N)(=O)=O)[C@@H](O)C2)ncn1` gave an IC50 of at most 500 nM.
`CO[C@H]1CC(C)(C)c2ccccc2[C@H]1Nc1cc(O[C@@H]2C[C@@H](COS(N)(=O)=O)[C@@H](O)C2)ncn1` gave an IC50 of at most 500 nM.
In the case of `NS(=O)(=O)OCC1C[C@@H](Nc2ncnc3[nH]c(C4CCCc5ccccc54)nc23)C[C@@H]1O` (single isomer, unassigned), the IC50 is reported as at most 500 nM.

From ChEMBL document CHEMBL3879911, “Heteroaryl compounds useful as inhibitors of E1 activating enzymes” (2008)
